The source of these data is ChEMBL document CHEMBL4311999, “3-Hydrazinoisatin-based benzenesulfonamides as novel carbonic anhydrase inhibitors endowed with anticancer activity: Synthesis, in vitro biological evaluation and in silico insights” (Eur J Med Chem, 2019).

One may read the Ki as a dissociation constant, usually derived from enzyme kinetics or from competition with a known ligand.

One test concerns the target Carbonic anhydrase 1 (Homo sapiens, UniProt P00915). Kind of test: Inhibition of recombinant human carbonic anhydrase 1 preincubated for 15 mins by phenol red dye based stopped flow CO2 hydration assay.
The next test addresses Carbonic anhydrase 12 (Homo sapiens, UniProt O43570). Put plainly: Inhibition of recombinant human carbonic anhydrase 12 preincubated for 15 mins by phenol red dye based stopped flow CO2 hydration assay.
The subject of another test is A549. Put plainly: Growth inhibition of human A549/ATCC cells at 10 uM incubated for 48 hrs by sulforhodamine B assay relative to control. The settings on record: A549, 48 h, read-out: GI. Format: functional.
For another test, the system named is HOP-62. Put plainly: Growth inhibition of human HOP62 cells at 10 uM incubated for 48 hrs by sulforhodamine B assay relative to control. Format: functional. The settings on record: HOP-62, 48 h, read-out: GI. For orientation: The SRB assay estimates cell density from bound dye.
In another test the test system is NCI-H322M. Put plainly: Growth inhibition of human NCI-H322M cells at 10 uM incubated for 48 hrs by sulforhodamine B assay relative to control. Type of test: functional. The note with it: read-out: GI.
For a further test, the system named is SF-268. Put plainly: Growth inhibition of human SF268 cells at 10 uM incubated for 48 hrs by sulforhodamine B assay relative to control. Type of test: functional. The note with it: SF-268, 48 h, read-out: GI.
A further test deals with SNB-19. Put plainly: Growth inhibition of human SNB19 cells at 10 uM incubated for 48 hrs by sulforhodamine B assay relative to control. Format: functional. The settings on record: SNB-19, 48 h, read-out: GI.
For another test, the system named is MDA-MB-435. Put plainly: Growth inhibition of human MDA-MB-435 cells at 10 uM incubated for 48 hrs by sulforhodamine B assay relative to control. Format: functional. The note with it: MDA-MB-435, 48 h, read-out: GI.
The test system of the next test is ACHN. Put plainly: Growth inhibition of human ACHN cells at 10 uM incubated for 48 hrs by sulforhodamine B assay relative to control. Type of test: functional. The settings on record: read-out: GI.
In a further test the test system is 786-0. Put plainly: Growth inhibition of human 786-0 cells at 10 uM incubated for 48 hrs by sulforhodamine B assay relative to control. Format: functional. The note with it: 786-0, 48 h, read-out: GI.
In a further test the test system is A498. Kind of test: Growth inhibition of human A498 cells at 10 uM incubated for 48 hrs by sulforhodamine B assay relative to control. Type of test: functional. The settings on record: A498, 48 h, read-out: GI.
The subject of another test is NCI/ADR-RES. Put plainly: Growth inhibition of human NCI/ADR-RES cells at 10 uM incubated for 48 hrs by sulforhodamine B assay relative to control. Type of test: functional. The note with it: read-out: GI.
A further test concerns UACC-62. Put plainly: Growth inhibition of human UACC62 cells at 10 uM incubated for 48 hrs by sulforhodamine B assay relative to control. Format: functional. The note with it: UACC-62, 48 h, read-out: GI.
Another test has as its system Hs-578T. Put plainly: Growth inhibition of human Hs 578T cells at 10 uM incubated for 48 hrs by sulforhodamine B assay relative to control. Format: functional. The note with it: read-out: GI.
Another test has as its system BT-549. Kind of test: Growth inhibition of human BT549 cells at 10 uM incubated for 48 hrs by sulforhodamine B assay relative to control. Format: functional. The settings on record: BT-549, 48 h, read-out: GI.
The subject of the next test is MDA-MB-468. Put plainly: Growth inhibition of human MDA-MB-468 cells at 10 uM incubated for 48 hrs by sulforhodamine B assay relative to control. Format: functional. The settings on record: MDA-MB-468, 48 h, read-out: GI.
A further test concerns HCT-116. Kind of test: Inhibition of clonogenicity in human HCT116 cells assessed as reduction in colony formation treated for 10 days by crystal violet staining. Type of test: functional, cell-based.
For the next test, the system named is CCRF-CEM. Put plainly: Growth inhibition of human CCRF-CEM cells at 10 uM incubated for 48 hrs by sulforhodamine B assay relative to control. The settings on record: read-out: GI. Format: functional.
For the next test, the system named is EKVX. Put plainly: Growth inhibition of human EKVX cells at 10 uM incubated for 48 hrs by sulforhodamine B assay relative to control. The settings on record: read-out: GI. Type of test: functional.
The next test deals with NCI-H23. Put plainly: Growth inhibition of human NCI-H23 cells at 10 uM incubated for 48 hrs by sulforhodamine B assay relative to control. Format: functional. The note with it: NCI-H23, 48 h, read-out: GI.
The test system of the next test is COLO 205. Kind of test: Growth inhibition of human COLO205 cells at 10 uM incubated for 48 hrs by sulforhodamine B assay relative to control. Type of test: functional. The note with it: COLO 205, 48 h, read-out: GI.
A further test deals with HT-29. Put plainly: Growth inhibition of human HT-29 cells at 10 uM incubated for 48 hrs by sulforhodamine B assay relative to control. Format: functional. The note with it: HT-29, 48 h, read-out: GI.
Another test concerns KM12. Put plainly: Growth inhibition of human KM12 cells at 10 uM incubated for 48 hrs by sulforhodamine B assay relative to control. Type of test: functional. The settings on record: KM12, 48 h, read-out: GI.
In a further test the test system is LOX IMVI. Put plainly: Growth inhibition of human LOXIMVI cells at 10 uM incubated for 48 hrs by sulforhodamine B assay relative to control. Format: functional. The note with it: read-out: GI.
The test system of another test is SK-MEL-2. Put plainly: Growth inhibition of human SK-MEL-2 cells at 10 uM incubated for 48 hrs by sulforhodamine B assay relative to control. Format: functional. The note with it: SK-MEL-2, 48 h, read-out: GI.
The next test has as its system TK-10. Put plainly: Growth inhibition of human TK10 cells at 10 uM incubated for 48 hrs by sulforhodamine B assay relative to control. Type of test: functional. The note with it: TK-10, 48 h, read-out: GI.
The next test concerns SK-MEL-28. Kind of test: Growth inhibition of human SK-MEL-28 cells at 10 uM incubated for 48 hrs by sulforhodamine B assay relative to control. Format: functional. The note with it: SK-MEL-28, 48 h, read-out: GI.

Carbonic anhydrase 12, sequence (O43570 whole entry): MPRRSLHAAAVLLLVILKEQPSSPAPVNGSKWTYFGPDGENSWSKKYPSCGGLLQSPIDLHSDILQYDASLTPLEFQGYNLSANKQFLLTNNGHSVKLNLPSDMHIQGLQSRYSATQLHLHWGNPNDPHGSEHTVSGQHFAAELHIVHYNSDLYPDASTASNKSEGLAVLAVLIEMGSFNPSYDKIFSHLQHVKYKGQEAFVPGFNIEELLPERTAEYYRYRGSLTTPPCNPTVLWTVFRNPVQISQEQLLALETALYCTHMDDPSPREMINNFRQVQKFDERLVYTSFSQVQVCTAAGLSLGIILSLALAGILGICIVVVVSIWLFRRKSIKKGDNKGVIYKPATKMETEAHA
Carbonic anhydrase 1, sequence (P00915 whole entry): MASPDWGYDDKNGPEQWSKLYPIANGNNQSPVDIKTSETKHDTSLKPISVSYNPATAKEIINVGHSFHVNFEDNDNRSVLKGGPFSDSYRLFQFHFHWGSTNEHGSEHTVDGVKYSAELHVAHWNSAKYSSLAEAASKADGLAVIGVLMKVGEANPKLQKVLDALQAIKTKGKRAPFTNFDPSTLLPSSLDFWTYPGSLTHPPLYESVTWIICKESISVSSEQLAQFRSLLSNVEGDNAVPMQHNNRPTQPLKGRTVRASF

As to `NS(=O)(=O)c1ccc(N/N=C2\C(=O)N(Cc3ccccc3)c3ccc(Cl)cc32)cc1`, the Ki at Carbonic anhydrase 1 worked out at 4830 nM; on Carbonic anhydrase 12 it was 33.7 nM. The inhibition of growth at 10 µM amounted to 17% in the test on A549; 36% in the test on HOP-62; 16% in the test on NCI-H322M; 35% with SF-268; 59% in the test on SNB-19; 21% with MDA-MB-435. In addition, the inhibition of growth at 10 µM came to 35% with ACHN; 52% with 786-0; 22% with A498; 18% with NCI/ADR-RES; 34% in the test with UACC-62; 55% with Hs-578T. Also, the inhibition of growth at 10 µM with BT-549 amounted to 19%; in the test on MDA-MB-468, 17%.
Turning to `CCOC(=O)CN1C(=O)/C(=N\Nc2ccc(S(N)(=O)=O)cc2)c2cc(Br)ccc21`, the inhibition result in the test with HCT-116 was “Dose-dependent effect”. The values for the Ki at Carbonic anhydrase 1 and at Carbonic anhydrase 12 were more than 10000 nM and 49.5 nM, respectively. Also, the inhibition of growth at 10 µM in the test on CCRF-CEM came out at 47%; with EKVX, 17%; with A549, 69%; with HOP-62, 35%; with NCI-H23, 23%; in the test with NCI-H322M, 23%. The inhibition of growth at 10 µM with COLO 205 is 42%; in the test with HT-29, 36%; in the test with KM12, 30%; in the test with LOX IMVI, 14%; with SK-MEL-2 it was 11%; with TK-10 it was 14%. Besides, the inhibition of growth at 10 µM in the test on ACHN was found to be 15%; in the test with NCI/ADR-RES, 10%; with SK-MEL-28, 15%; in the test with Hs-578T, 10%.
